Data: PubChem BioAssay AID1963448 (Molecular Pharmacology Branch, DTP, NCI, 2024)
Where “and” joins values, the source holds several entries; their conditions need not be identical. Equal values may be shown once.

Test system: 616215-338-R-J1-PDC complex spheroid growth, % test/control
Assay: Anticancer human tumor 616215-338-R-J1-PDC patient-derived colon adenocarcinoma cell line growth inhibition [Asc]
Conditions: for viability, T/C: stronger effect = lower value
Procedure: Multicellular complex tumor spheroid response to apoptosis pathway targeting inhibitors Alrizomadlin, Pelcitoclax, and Dasminapant in combination with a variety of drugs and investigational agents in selected tumor cell lines
The MDM2 inhibitor alrizomadlin, the Bcl-2/Bcl-xL inhibitor pelcitoclax, and the IAPs inhibitor dasminapant were evaluated both individually and in combination with standard of care and investigational anticancer small molecules within a complex spheroid model of solid tumors. . Complex spheroids include a stromal component modeled by human endothelial cells (HUVEC) and fibroblasts modeled by human mesenchymal stem cells (MSCs). The concentration ranges selected for each drug and investigational agent were based upon clinically achievable concentrations if the clinical Cmax of the agent was known.
Compounds. The drugs and investigational agents: alrizomadlin (APG-115; NSC831270), pelcitoclax (APG-1252; NSC835773), dasminapant (APG-1387;NSC834197), TAK-243 (NSC785004), copanlisib (NSC809693), olaparib (NSC753686), talazoparib (NSC767125), cobimetinib (NSC 768068), eltanexor (KPT-8602, NSC 794443), abemaciclib (NSC 768073), sotorasib (NSC818433), adagrasib (NSC 831453), MRTX-1133 (NSC 836407), Iadademestat (ORY1001, NSC 806812), and RMC-4630 (NSC839698), were obtained from the NCI Developmental Therapeutics Program Chemical Repository. The FDA-approved anticancer drug set is available from the Developmental Therapeutics Program at https://dtp.cancer.gov/organization/dscb/obtaining/available plates.htm. […] The stock solutions were prepared in dimethyl sulfoxide (DMSO, Sigma-Aldrich, St. Louis, MO, cat. D2650) at 800-fold the tested concentration and stored at -70 degrees C prior to their use. All drugs and investigational agents were tested over a range starting from a high concentration at or near the clinical Cmax and decreasing in half-log increments. If the clinical Cmax for an agent had not been determined, the highest concentration tested was 10 microM.
The patient-derived cancer (PDC) cell lines include five colon adenocarcinomas: 186277-243-T-J2-PDC, 616215-338-R-J1-PDC, 439559-082-T-J2-PDC, 463943-066-T-J2-PDC, and 519858-162-T-J1-PDC; three pancreatic carcinomas: 323965-272-R-J2-PDC, 521955-158-R6-J3-PDC, and 521955-158-R2-J5-PDC; two uterine sarcomas: 327498-152-R-J2-PDC and 993429-296-R-J1-PDC; two rhabdomyosarcomas: 755483-174-R-J1-PDC and 772245-204-R-J1-PDC; two soft tissue sarcomas: 126254-015-R-J1-PDC and 494315-158-R-J1-PDC; two malignant fibrous histiocytomas: 317291-083-R-J1-PDC and 596521-263-R-J1-PDC; two breast carcinomas: 171881-019-R-J1-PDC and 885512-296-R-J2-PDC; and one ovarian carcinoma: 6556581-035-R-J-PDC were obtained from the NCI PDMR, (https://pdmr.cancer.gov). The established cell lines HSSY-2 synovial sarcoma (RRID:CVCL 8719), SYO-1 synovial sarcoma (RRID:CVCL_7146), MPNST malignant peripheral neural sheath tumor were obtained from the Sloan Kettering Institute. The following established cell lines were purchased from the American Type Culture Collection (ATCC, Manassas, VA), Sor the received from the NCI repository:, PANC-1 pancreatic carcinoma (CRL-1469, RRID:CVCL_0480), OVCAR-5 ovarian carcinoma (RRID:CVCL_1628), OVCAR-8 ovarian carcinoma (RRID:CVCL_1629), , MCF-7 breast carcinoma (CRL-12584, RRID:CVCL_0031), MDA-MB-231 breast carcinoma (CRL-12532, RRID:CVCL_0062), NCI-H1876 small cell lung carcinoma (CRL-5902, RRID:CVCL_1503), NCI-H510A small cell lung carcinoma (HTB-184, RRID:CVCL_1565), NCI-H1417 (CRL-5869, RRID:CVCL_1469), and NCI-H196 small cell lung carcinoma (CRL-5823, RRID:CVCL_1509). Dr. Peter Houghton (Greehey Children's Cancer Research Institute, University of Texas Health Science Center, San Antonio, TX) provided Rh-18 rhabdomyosarcoma (RRID:CVCL_1659). Pooled donor human umbilical vein endothelial cells (HUVEC, Lonza, cat. CC-2519) and human mesenchymal stem cells (hMSC, Lonza, cat. PT-2501) were purchased from Lonza (Walkersville, MD).
Cell Culture. […]
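Further: spheroids exposed to agents for seven days before readout.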
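Wherever viability, T/C is given: 100% = DMSO vehicle control viability.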

SMILES	viability, T/C (compound 0.0316 µM)	viability, T/C (compound 0.1 µM)	viability, T/C (compound 0.316 µM)	viability, T/C (compound 1 µM)	IC50 (curve of compound)	viability, T/C (compound 0.00316 µM)	viability, T/C (compound 0.01 µM)	also measured
C#Cc1c(F)ccc2cc(O)cc(-c3ncc4c(N5CC6CCC(C5)N6)nc(OCC56CCCN5CC(F)C6)nc4c3F)c12 (configuration not stated)	105% and 96.2% and 99%	96% and 104% and 102%	104% (2×) and 94.8%	106% and 113% and 101%	3120 nM and > 10000 nM			viability, T/C (compound 3.16 µM): 49.3% and 108% and 101%
C=C(F)C(=O)N1CCN(c2nc(OCC3CCCN3C)nc3c2CCN(c2cccc4cccc(Cl)c24)C3)CC1CC#N (configuration not stated)	75.3% and 90.8% and 99.4%	72.6% and 95.6% and 102%	59.3% and 97.8% and 100%	38.8% and 98.2% and 107%				viability, T/C (compound 10 µM): 0.82% and 0.6% and 0.47%
C=CC(=O)N1CCN(c2nc(=O)n(-c3c(C)ccnc3C(C)C)c3nc(-c4c(O)cccc4F)c(F)cc23)C(C)C1 (configuration not stated)	97% and 99.6% and 107%	95.3% and 101% and 91.9%	102% and 98.2% and 97.2%	102% and 100% and 74.5%	> 10000 nM and 3750 nM			viability, T/C (compound 3.16 µM): 106% and 109% and 52.6%; viability, T/C (compound 10 µM): 102% and 106% and 35.4%
CCN1C(C(=O)NC23CCC(C(=O)O)(CC2)CC3)C(c2cccc(Cl)c2F)C2(C(=O)Nc3cc(Cl)ccc32)C12CCCCC2 (configuration not stated)					965 nM and > 3000 nM			viability, T/C (compound 0.00949 µM): 106% and 100%; viability, T/C (compound 0.03 µM): 96.6% [middle of 15 runs]
CCN1CCN(Cc2ccc(Nc3ncc(F)c(-c4cc(F)c5nc(C)n(C(C)C)c5c4)n3)nc2)CC1	96.5% and 104% and 78.5%	102% and 106% and 82.5%	122% and 102% and 65.8%	130% and 117% and 34.9%	> 1000 nM and 543 nM	98.2% and 91.4% and 109%	97.2% and 108% and 113%	
CNC(C)C(=O)NC1CN(S(=O)(=O)c2cccc(S(=O)(=O)N3CCC4CCC(C(=O)NC(c5ccccc5)c5ccccc5)N4C(=O)C(NC(=O)C(C)NC)C3)c2)CCC2CCC(C(=O)NC(c3ccccc3)c3ccccc3)N2C1=O (configuration not stated)		101% [middle of 9 runs]	102% [middle of 9 runs]	101% [middle of 9 runs]	> 1000 nM		105% [middle of 9 runs]	
COc1c(OCCCN2CCOCC2)ccc2c3n(c(=NC(=O)c4cnc(N)nc4)nc12)CCN3	111% and 100% and 68%	95.3% and 105% and 36.9%	48.7% and 43.9% and 18.3%	28.9% and 26% and 11.2%	305 nM and 281 nM and 62.4 nM	102% (2×) and 105%	107% and 102% and 98.3%	
Cc1c(S(C)(=O)=O)c(-c2cc(F)cc(N3CCN(c4ccc(NS(=O)(=O)c5ccc(NC(CCN6CCC(C(=O)OCCCP(=O)(O)O)CC6)CSc6ccccc6)c(S(=O)(=O)C(F)(F)F)c5)cc4)CC3)c2)c(-c2ccc(Cl)cc2)n1C(C)C (configuration not stated)		89.8% [middle of 14 runs]	88.1% [middle of 14 runs]	69.6% [middle of 14 runs]				viability, T/C (compound 3.16 µM): 38% [middle of 13 runs]; viability, T/C (compound 10 µM): 27.6% [middle of 14 runs]; IC50 (compound alone, run of 10/11/2022): 1.96 µM [middle of 13 runs]
Cc1nc(N2CCC3(CC2)COC(C)C3N)c(CO)nc1Sc1ccnc(N)c1Cl (configuration not stated)					871 nM and > 3000 nM			viability, T/C (compound 0.00949 µM): 102% and 94% and 101%; viability, T/C (compound 0.03 µM): 90.5% and 98.1% and 102%; viability, T/C (compound 0.0949 µM): 104% and 105% and 103%; viability, T/C (compound 0.3 µM): 81.2% and 99.7% and 101%; viability, T/C (compound 0.949 µM): 48% and 102% (2×); viability, T/C (compound 3 µM): 11.8% and 95.5% and 91.3%
Cn1ncnc1[C@H]1c2n[nH]c(=O)c3cc(F)cc(c23)N[C@@H]1c1ccc(F)cc1	95.7% and 100% and 102%	108% (2×) and 100%			> 100 nM	97.1% and 98.9% and 93.8%	99% and 106% and 100%	viability, T/C (compound 0.000316 µM): 93.4% and 104% and 99.2%; viability, T/C (compound 0.001 µM): 96.2% and 100% and 92.5%
NC(=O)C(=Cn1cnc(-c2cc(C(F)(F)F)cc(C(F)(F)F)c2)n1)c1cncnc1								viability, T/C (compound 0.000949 µM): 97.1% and 89.2% and 43.2%; viability, T/C (compound 0.003 µM): 96.8% and 85% and 52.7%; viability, T/C (compound 0.00949 µM): 99.3% and 95.9% and 24.4%; viability, T/C (compound 0.03 µM): 100% and 86.7% and 29.2%; viability, T/C (compound 0.0949 µM): 95.2% and 81.8% and 20.7%; viability, T/C (compound 0.3 µM): 97.6% and 91.7% and 30.1%
NC1CCC(NC2CC2c2ccccc2)CC1 (configuration not stated)	91.6% and 91.8% and 99.5%	92.8% and 94.4% and 97.4%			> 100 nM	90.4% and 95.5% and 101%	92.3% and 96.8% and 93.5%	viability, T/C (compound 0.000316 µM): 96.5% and 100% and 109%; viability, T/C (compound 0.001 µM): 102% (2×) and 97.4%
O=C(c1cc(Cc2n[nH]c(=O)c3ccccc23)ccc1F)N1CCN(C(=O)C2CC2)CC1	97.1% and 97.4% and 112%	99.8% and 94.7% and 98.3%	97.7% and 99.4% and 100%	96.5% and 94.7% and 99.3%	> 10000 nM			viability, T/C (compound 3.16 µM): 96.8% and 106% and 90.6%; viability, T/C (compound 10 µM): 91.1% and 90.2% and 89.1%
O=C(c1ccc(F)c(F)c1Nc1ccc(I)cc1F)N1CC(O)([C@@H]2CCCCN2)C1	74.5% and 93.8% and 67.1%	54.4% and 51.2% and 15.8%	22.1% and 19.3% and 4.03%	1.33% and 0.76% and 3.69%	113 nM and 114 nM and 46.2 nM	89.5% and 99.8% and 108%	84.3% and 101% and 100%	
